From PubChem BioAssay (NCI)
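Test compounds were applied to cells in 96-well plates for 48 hours at 5 doses. Definition used: TGI = concentration required for complete inhibition of growth.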

Tests used:
Assay in all cases: DTP human tumour cell line panel, 48 h
CAKI-1 renal = system: CAKI-1 renal
DU-145 prostate = system: DU-145 prostate
HT29 colon = system: HT29 colon
KM12 colon = system: KM12 colon
LOX IMVI melanoma = system: LOX IMVI melanoma
MDA-MB-435 = system: MDA-MB-435
NCI-H226 lung = system: NCI-H226 lung
NCI-H23 lung = system: NCI-H23 lung
NCI-H460 lung = system: NCI-H460 lung
SF-295 CNS = system: SF-295 CNS
SK-MEL-2 melanoma = system: SK-MEL-2 melanoma
SK-MEL-28 melanoma = system: SK-MEL-28 melanoma
SW-620 colon = system: SW-620 colon
U251 CNS = system: U251 CNS
UO-31 renal = system: UO-31 renal
MALME-3M melanoma = system: MALME-3M melanoma
NCI-H522 lung = system: NCI-H522 lung
OVCAR-4 ovarian = system: OVCAR-4 ovarian
RXF 393 renal = system: RXF 393 renal
MDA-N = system: MDA-N

Row | SMILES | TGI (CAKI-1 renal) [µM] | TGI (DU-145 prostate) [µM] | TGI (HT29 colon) [µM] | TGI (KM12 colon) [µM] | TGI (LOX IMVI melanoma) [µM] | TGI (MDA-MB-435) [µM] | TGI (NCI-H226 lung) [µM] | TGI (NCI-H23 lung) [µM] | TGI (NCI-H460 lung) [µM] | TGI (SF-295 CNS) [µM] | TGI (SK-MEL-2 melanoma) [µM] | TGI (SK-MEL-28 melanoma) [µM] | TGI (SW-620 colon) [µM] | TGI (U251 CNS) [µM] | TGI (UO-31 renal) [µM] | TGI (MALME-3M melanoma) [µM] | TGI (NCI-H522 lung) [µM] | TGI (OVCAR-4 ovarian) [µM] | TGI (RXF 393 renal) [µM] | TGI (MDA-N) [µM]
1 | O=c1[nH]c2ccccc2c(=O)n1/N=C/c1ccc(O)cc1 | > 100 | > 100 | > 100 | > 100 | > 100 | > 100 | > 100 | > 100 | > 100 | > 100 | > 100 | > 100 | > 100 | > 100 | > 100 | – | – | – | – | –
2 | COC(=O)C1CCc2c1c(=O)n1c([nH]c3ccccc31)c2C#N (stereo unspecified) | > 100 | – | > 100 | > 100 | > 100 | – | > 100 | > 100 | > 100 | > 100 | > 100 | > 100 | > 100 | > 100 | > 100 | > 100 | > 100 | > 100 | > 100 | –
3 | CC(=O)O[C@H]1C(=O)[C@@]2(C)[C@H]([C@H](OC(=O)c3cccc([N+](=O)[O-])c3)[C@]3(O)C[C@H](OC(=O)[C@H](O)[C@@H](NC(=O)c4ccccc4)c4ccccc4)C(C)=C1C3(C)C)[C@]1(OC(C)=O)CO[C@@H]1C[C@@H]2O | > 25 | > 25 | – | > 25 | > 25 | 0.0114 | > 25 | – | > 25 | 0.15 | > 25 | > 25 | > 25 | – | > 25 | – | 0.0161 | > 25 | – | 0.0115
4 | CC(C)OP(=O)(OC(C)C)/C(Cl)=N/Nc1ccc([N+](=O)[O-])cc1 | > 100 | – | – | > 100 | > 100 | – | – | > 100 | > 100 | – | > 100 | > 100 | > 100 | > 100 | > 100 | > 100 | > 100 | > 100 | – | –
5 | CCc1ccccc1N=NC(=O)NNc1ccccc1CC | 95.2 | 33.6 | 40.8 | – | 33.7 | 49 | 34.4 | 39.8 | 34.5 | – | 31.7 | 32.2 | 37.5 | 29.6 | 39.8 | 32.7 | 41.3 | 69.8 | – | 33.2
6 | Cc1ccc(S(=O)(=O)NC(=O)NCCc2cnc[nH]2)cc1 | > 100 | > 100 | > 100 | > 100 | > 100 | > 100 | > 100 | > 100 | > 100 | > 100 | > 100 | > 100 | > 100 | > 100 | > 100 | > 100 | > 100 | > 100 | > 100 | –
7 | CC(C)=CCC[C@]1(C)C=Cc2c(O)c3c(c(CC=C(C)C)c2O1)O[C@]12C(=C[C@@H]4CC1C(C)(C)O[C@@]2(C/C=C(/C)C(=O)O)C4=O)C3=O | 3.66 | – | 1.85 | 2.25 | 4.95 | 3.72 | 3.93 | 3.24 | 3.27 | 10 | 4.13 | 3.26 | 2.89 | 3.31 | 3.73 | 3.76 | 2.32 | 13.6 | 2.34 | 4.59
8 | COc1ccc(C2=C(Cl)c3cc(OC)c(OC)cc3C2OC)cc1OC (stereo unspecified) | > 100 | – | > 100 | > 100 | > 100 | – | > 100 | > 100 | > 100 | > 100 | > 100 | > 100 | 49.2 | – | > 100 | > 100 | > 100 | > 100 | > 100 | –
9 | O=C(c1ccccc1)c1c(CC(O)c2ccccn2)n(C(=O)c2ccccc2)c2ccccc12 (stereo unspecified) | > 100 | – | 30.1 | > 100 | – | – | 54 | 56.3 | 57 | 84.8 | 30.9 | 39.6 | > 100 | 58 | 67.5 | 46 | 47.2 | > 100 | – | –
10 | CCOC(=O)c1nc2ccc(C(F)(F)F)cc2nc1NCc1ccc(OC)cc1 | > 100 | – | > 100 | > 100 | > 100 | > 100 | > 100 | > 100 | > 100 | > 100 | > 100 | – | > 100 | > 100 | > 100 | > 100 | > 100 | > 100 | > 100 | > 100
11 | Cc1ccc(NC(Nc2ccc(C)cc2C)=C(C(Cl)=C(Cl)Cl)[N+](=O)[O-])c(C)c1 | 37.4 | 27.9 | 33.3 | 29.2 | 20.4 | 17.2 | 32.3 | 20 | 29.7 | – | – | 35.2 | 33.1 | – | 26.6 | 31.8 | 28 | 33.2 | 32.6 | –
12 | Nc1nc2c3nc(Nc4ccccc4)sc3nc(=S)n2c2sc(Nc3ccccc3)nc12 | – | – | > 100 | – | – | – | > 100 | > 100 | – | > 100 | – | > 100 | > 100 | > 100 | > 100 | > 100 | > 100 | > 100 | > 100 | –
13 | C[C@@H](c1ccccc1)n1c(N)c(-c2ccccn2)c2ccc([N+](=O)[O-])cc2c1=O | > 100 | > 100 | > 100 | > 100 | > 100 | > 100 | > 100 | > 100 | > 100 | – | > 100 | > 100 | > 100 | > 100 | > 100 | – | > 100 | > 100 | – | > 100
14 | CCCNC(=S)/N=C/c1c(O)cc(C)oc1=O | > 100 | > 100 | > 100 | > 100 | > 100 | > 100 | > 100 | > 100 | > 100 | > 100 | > 100 | > 100 | > 100 | > 100 | > 100 | – | – | > 100 | – | > 100
15 | COP(=O)(OC)C(=O)N1N(c2ccc([N+](=O)[O-])cc2)C(=O)C(C)NC1(NNc1ccc([N+](=O)[O-])cc1)P(=O)(OC)OC (stereo unspecified) | > 100 | – | – | > 100 | > 100 | – | > 100 | > 100 | > 100 | – | > 100 | > 100 | > 100 | > 100 | > 100 | > 100 | > 100 | > 100 | – | –
16 | CC1(C)O[C@@H]([C@H](O)CO)[C@H](O)[C@@H](C2SCCCS2)O1 | > 100 | > 100 | > 100 | > 100 | – | > 100 | > 100 | > 100 | > 100 | > 100 | > 100 | > 100 | > 100 | > 100 | > 100 | – | – | > 100 | > 100 | –
17 | CCOC(=O)c1c(N)n(-c2ccccc2)c(=O)n(-c2ccccc2)c1=O | – | > 100 | > 100 | > 100 | > 100 | > 100 | > 100 | > 100 | > 100 | > 100 | > 100 | > 100 | > 100 | > 100 | > 100 | > 100 | > 100 | > 100 | > 100 | –
18 | CCOc1cc(C2SCC(=O)N2c2ccc(Oc3ccc(Cl)cc3)c(Cl)c2)ccc1O (stereo unspecified) | 32.6 | 31.3 | 31.8 | 31.8 | 38.7 | 42 | 31.1 | 32.3 | 39.1 | 34.1 | 32.7 | 38.2 | 37.7 | 35.7 | 21.7 | 32.4 | 28.1 | 31.1 | – | 41.9
19 | CC(=O)Nc1ccc(NCC(=O)Nn2cnc3ccc(S(=O)(=O)Nc4ccc(NC(C)=O)cc4)cc3c2=O)cc1 | > 100 | > 100 | > 100 | > 100 | > 100 | > 100 | > 100 | > 100 | > 100 | > 100 | > 100 | > 100 | > 100 | > 100 | > 100 | > 100 | > 100 | > 100 | – | > 100
20 | CCc1n[nH]c(=O)n1/N=C/c1ccccc1O | – | > 100 | – | > 100 | > 100 | > 100 | – | > 100 | – | > 100 | > 100 | > 100 | > 100 | > 100 | > 100 | – | > 100 | > 100 | > 100 | > 100
21 | O=C(O)CN1C=C(C(=O)c2cc3ccccc3n2S(=O)(=O)c2ccccc2)CCC1 | > 100 | > 100 | > 100 | > 100 | > 100 | > 100 | > 100 | > 100 | > 100 | > 100 | > 100 | > 100 | > 100 | > 100 | > 100 | > 100 | – | > 100 | > 100 | –
22 | CCN(CC)c1cccc2c1/C(=N/O)CCCC2 | – | – | > 100 | > 100 | > 100 | – | > 100 | > 100 | > 100 | > 100 | > 100 | > 100 | > 100 | > 100 | > 100 | > 100 | > 100 | > 100 | > 100 | –
23 | N#CC(C(=O)c1cccnc1Cl)c1nc2cc(C(F)(F)F)ccc2s1 (stereo unspecified) | > 100 | > 100 | > 100 | > 100 | > 100 | > 100 | > 100 | > 100 | > 100 | > 100 | – | > 100 | > 100 | > 100 | > 100 | > 100 | 61.4 | > 100 | > 100 | –
24 | CCOC(=O)c1c[nH]c2c(Sc3ccccc3)nccc2c1=O | > 100 | > 100 | > 100 | > 100 | > 100 | > 100 | > 100 | > 100 | > 100 | > 100 | > 100 | > 100 | > 100 | > 100 | > 100 | – | 74 | > 100 | – | > 100
25 | CCN(CC)C(=O)Cc1c(C(=O)N(CC)CC)c(=O)nc2sccn12 | – | – | > 100 | > 100 | > 100 | – | > 100 | > 100 | > 100 | > 100 | > 100 | > 100 | > 100 | > 100 | > 100 | > 100 | > 100 | > 100 | > 100 | –
26 | Cc1nc(N)c(N2CCN(C(=O)O)CC2)c(=O)[nH]1 | – | > 100 | > 100 | > 100 | > 100 | > 100 | > 100 | > 100 | > 100 | > 100 | > 100 | > 100 | > 100 | > 100 | > 100 | > 100 | > 100 | > 100 | – | > 100
